Results as given in patent publication US10837044B2, “Automated method for analyzing and interpreting an antimicrobial susceptibility” (FONDATION MEDITERRANEE INFECTION, priority 2014, dated 2020).

How the values were obtained:
[1] = tested on: Staphylococcus aureus; test: antibiogram by diffusion on Mueller-Hinton agar with antibiotic wafers; assay type: cell-based; conditions: Table C2, sixteen wafers, square dish
Method: (§1) The inoculum was prepared by making a suspension of bacteria directly from colonies put into solution in tubes of sterile water so that the solution presented accurate opacity as determined with a spectrophotometer equivalent to the opacity of a 0.5 standard in the McFarland range. This bacterial suspension concentration is standardized since a more concentrated inoculum would lead to smaller diameters for the inhibition zone, and vice versa.
(§2) The inoculum corresponds to concentrations of about 10^8 CFU/mL for Escherichia coli, Klebsiella pneumoniae, Proteus mirabilis, Klebsiella oxytoca, Enterobacter cloacea, Enterobacter aerogenes, Entercoccus faecalis, Pseudomonas aeruginosa, Staphylococcus aureus, and Staphylococcus epidermidis. These are the ten species bacteria that are encountered the most frequently in human pathologies.
(§3) 1.2) The bacterial sample was deposited on a solid culture medium in a petri dish having a diameter of 90 mm or in a square dish having a side of 120 mm, the medium being constituted by a Mueller-Hinton agar specific for (EUCAST) antibiograms. Ideally, it should be used in the 15 minutes (min) following preparation of the suspension.
(§4) Seeding was done by the method of diffusion on an agar medium by flooding in which excess bacterial suspension was added to the Mueller-Hinton agar. After homogenizing, excess liquid was discarded in order to avoid over-inoculating the dishes. It is necessary to wait beforehand for the surface of the agar to be dry in order to eliminate any trace of moisture encouraging bacterial invasion.
(§5) The disks of the antibiotic wafers were deposited within 15 min after inoculating the agar. The antibiotic impregnated disks were deposited using an automatic dispenser that placed the disks firmly on the surface of the inoculated and dried agar. The number of disks deposited per dish was limited because of inhibition zone overlap and in order to limit interference between antibiotics. It is important for the inhibition diameters to be measurable. The antibiograms were then incubated at 37° C. for 18 hours (h) to 24 h.
(§6) The antibiotic wafers were made of high quality absorbent paper with a diameter of 6 mm and they were impregnated with antibiotics at concentrations in the range 1 micrograms (μg) to 300 μg approximately, depending on the antibiotic.
(§7) In the examples below, reference disks were used as sold by the suppliers i2a (Montpellier, France), BD (Becton Dickinson, USA), Bio-Rad (Hercules, USA), Biomerieux (Marcy l′Etoile, France) containing the following antibiotics and carrying the following codes and the following doses: AMX (amoxicillin) 25 μg: AMC (amoxicillin-clavulanic acid) 20 μg-10 μg; GM for gentamicin, 15 μg; SXT (trimethoprim-sulfamethoxazole) 1.25/23.75 μg; TIC (ticarcillin) 75 μg; TCC (ticarcillin-clavulanic acid) […]; TZP (piperacillin-tazobactam) 75/10 μg; CAZ (ceftazidime) 30 μg; IMP or IPM (imipeneme) 10 μg; COL (colistin) 50 μg; FOX (cefoxitine) 30 μg; VAN (vancomycin) 30 μg; TEC (teicoplanin) 30 μg; CLI or DA (clindamycin) 2 μg; CRO (ceftriaxone) 30 μg; CIP (ciprofloxacin) 5 μg; OFX (ofloxacin) 5 μg; CTX (cefotaxime) 5 μg; AN or AK (amikacin) 30 μg; TM (tobramycin) 10 μg; FOX (cefoxitine) 30 μg; ATM (aztreonam) 30 μg; ERT (ertapenem) 10 μg; FF (fosfomycin) 200 μg; DO (doxycycline) 30 μg; K (kanamycin) 1000 μg; L (lincomycin) 15 μs; LNZ (linezolid) 10 μg; AN (nalidixic acid) 30 μg; NOR (norfloxacin) 10 μg; PT (pristinamycin) 15 μg; RA (rifampicin) 5 μg; and E (erythromycin) 15 μg.

[2] = tested on: Escherichia coli; test: as above; assay type: cell-based; conditions: Table C2, square dish
Method: as §1, §2, §3, §4, §5, §6, §7

[3] = tested on: Klebsiella pneumoniae; test: as above; assay type: cell-based; conditions: Table C2, sixteen wafers, square dish
Method: as §1, §2, §3, §4, §5, §6, §7

[4] = tested on: Escherichia coli; conditions: cited from earlier work; for Critical diameters (mm) R> / Critical diameters (mm) S≤: disk load 10 μg, inhibition zone diameter; for Critical diameters (mm) R> / Critical concentrations (mg/L) R>: resistant; for Critical diameters (mm) S≤ / Critical concentrations (mg/L) S≤: sensitive; for Critical concentrations (mg/L) R>: high critical concentration; for Critical concentrations (mg/L) S≤: low critical concentration
[5] = tested on: Entercoccus faecalis; test: antibiogram by diffusion on Mueller-Hinton agar with antibiotic wafers; assay type: cell-based; conditions: Table C1, six wafers, disk loads of Table B
Method: as §1, §2, §3, §4, §5, §6, §7

[6] = tested on: Pseudomonas aeruginosa; test: as above; assay type: cell-based; conditions: Table C1, six wafers, disk loads of Table B
Method: as §1, §2, §3, §4, §5, §6, §7

[7] = S. aureus phenotype R to methicilline, R to aminosides, fluoroquinolones, to rifampicie, to macrolides and the like
[8] = E. coli phenotype Cephalosporinase + R to fluoroquinolones + R to cotrimoxazole + partial R to aminosides, sixteen wafers
[9] = E. coli phenotype Hl penicillinase + R to fluoroquinolones + R to cotrimoxazole + partial R to aminosides, sixteen wafers
[10] = E. coli phenotype Wild, sixteen wafers in a rectangular grid
[11] = K. pneumoniae phenotype Cephalosporinase + R to aminosides + R to cotrimoxazole
[12] = P. aeruginosa Abnormal phenotype
[13] = P. aeruginosa phenotype Carbapenemase
[14] = P. aeruginosa phenotype Penicillinase
[15] = P. aeruginosa phenotype Selective imipenem permeability

Molecule: CC[C@H]1OC(=O)[C@H](C)[C@@H](O[C@H]2C[C@@](C)(OC)[C@@H](O)[C@H](C)O2)[C@H](C)[C@@H](O[C@@H]2O[C@H](C)C[C@H](N(C)C)[C@H]2O)[C@](C)(O)C[C@@H](C)C(=O)[C@H](C)[C@@H](O)[C@]1(C)O [E, erythromycin]
- resistant (I/R) or sensitive (S) [1, 7]: R
- resistant (I/R) or sensitive (S) ([1]; S. aureus phenotype Wild): S

Molecule: CO/N=C(\C(=O)N[C@@H]1C(=O)N2C(C(=O)O)=C(COC(C)=O)CS[C@H]12)c1csc(N)n1 [CTX, cefotaxime]
- resistant (I/R) or sensitive (S) [2, 8]: R
- resistant (I/R) or sensitive (S) [2, 9]: S
- resistant (I/R) or sensitive (S) [2, 10]: S
- resistant (I/R) or sensitive (S) [3, 11]: R
- resistant (I/R) or sensitive (S) ([3]; K. pneumoniae phenotype Wild): R

Molecule: Cc1onc(-c2ccccc2)c1C(=O)N[C@@H]1C(=O)N2[C@@H]1SC(C)(C)[C@@H]2C(=O)O [OXA, oxacillin]
- resistant (I/R) or sensitive (S) [1, 7]: R
- resistant (I/R) or sensitive (S) ([1]; S. aureus phenotype Wild): S

Molecule: C[C@@H](O)[C@H]1C(=O)N2C(C(=O)O)=C(S[C@@H]3CN[C@H](CNS(N)(=O)=O)C3)[C@H](C)[C@H]12 [Doripenem]
- Critical diameters (mm) R> [4]: 21 mm
- Critical diameters (mm) S≤ [4]: 24 mm
- Critical concentrations (mg/L) R> [4]: 2 mg/L
- Critical concentrations (mg/L) S≤ [4]: 1 mg/L

Molecule: C[C@@H](O)[C@H]1C(=O)N2C(C(=O)O)=C(S[C@@H]3CN[C@H](C(=O)N(C)C)C3)[C@H](C)[C@H]12 [Meopenem]
- Critical diameters (mm) R> [4]: 16 mm
- Critical diameters (mm) S≤ [4]: 22 mm
- Critical concentrations (mg/L) R> [4]: 8 mg/L
- Critical concentrations (mg/L) S≤ [4]: 2 mg/L

Molecule: C[C@H]1c2cccc(O)c2C(=O)C2=C(O)[C@]3(O)C(=O)C(C(N)=O)=C(O)[C@@H](N(C)C)[C@@H]3[C@@H](O)[C@@H]21 [DO, doxycycline]
- resistant (I/R) or sensitive (S) [1, 7]: R
- resistant (I/R) or sensitive (S) ([1]; S. aureus phenotype Wild): S

Molecule: NC[C@H]1O[C@H](O[C@H]2[C@H](O)[C@@H](O[C@H]3O[C@H](CO)[C@@H](O)[C@H](N)[C@H]3O)[C@H](N)C[C@@H]2N)[C@H](N)C[C@@H]1O [TOB, tobramycin]
- resistant (I/R) or sensitive (S) [2, 8]: R
- resistant (I/R) or sensitive (S) [2, 9]: R
- resistant (I/R) or sensitive (S) [2, 10]: S
- resistant (I/R) or sensitive (S) [3, 11]: R
- resistant (I/R) or sensitive (S) ([3]; K. pneumoniae phenotype Wild): R
- resistant (I/R) or sensitive (S) [1, 7]: R
- resistant (I/R) or sensitive (S) ([1]; S. aureus phenotype Wild): S

Molecule: O=C(O)c1cn(C2CC2)c2cc(N3CCNCC3)c(F)cc2c1=O [CIP, ciprofloxacin]
- resistant (I/R) or sensitive (S) [2, 8]: R
- resistant (I/R) or sensitive (S) [2, 9]: R
- resistant (I/R) or sensitive (S) [2, 10]: S
- resistant (I/R) or sensitive (S) [3, 11]: R
- resistant (I/R) or sensitive (S) ([3]; K. pneumoniae phenotype Wild): S
- resistant (I/R) or sensitive (S) [1, 7]: R
- resistant (I/R) or sensitive (S) ([1]; S. aureus phenotype Wild): S

Molecule: C[C@H]1[C@H](NC(=O)/C(=N\OC(C)(C)C(=O)O)c2csc(N)n2)C(=O)N1S(=O)(=O)O [ATM, aztreonam]
- resistant (I/R) or sensitive (S) [2, 8]: R
- resistant (I/R) or sensitive (S) [2, 9]: S
- resistant (I/R) or sensitive (S) [2, 10]: S
- resistant (I/R) or sensitive (S) [3, 11]: R
- resistant (I/R) or sensitive (S) ([3]; K. pneumoniae phenotype Wild): R

Molecule: CO[C@H]1/C=C/O[C@@]2(C)Oc3c(C)c(O)c4c(O)c(c(/C=N/N5CCN(C)CC5)c(O)c4c3C2=O)NC(=O)/C(C)=C\C=C\[C@H](C)[C@H](O)[C@@H](C)[C@@H](O)[C@@H](C)[C@H](OC(C)=O)[C@@H]1C [RA, rifampicin]
- resistant (I/R) or sensitive (S) [1, 7]: R
- resistant (I/R) or sensitive (S) ([1]; S. aureus phenotype Wild): S

Molecule: O=C1CN(/N=C/c2ccc([N+](=O)[O-])o2)C(=O)N1 [FUR, nitrofurantoin]
- resistance (I, R) or sensitivity (S) ([5]; E. faecalis phenotype Atypical): S
- resistance (I, R) or sensitivity (S) ([5]; E. faecalis phenotype Wild): S
- resistant (I/R) or sensitive (S) [1, 7]: R
- resistant (I/R) or sensitive (S) ([1]; S. aureus phenotype Wild): S

Molecule: CC(C)(O/N=C(\C(=O)N[C@@H]1C(=O)N2C(C(=O)[O-])=C(C[n+]3ccccc3)CS[C@H]12)c1csc(N)n1)C(=O)O [CAZ, ceftazidime]
- resistance (I, R) or sensitivity (S) [6, 12]: S
- resistance (I, R) or sensitivity (S) ([6]; P. aeruginosa phenotype BSBL): R
- resistance (I, R) or sensitivity (S) [6, 13]: R
- resistance (I, R) or sensitivity (S) [6, 14]: S
- resistance (I, R) or sensitivity (S) [6, 15]: S
- resistance (I, R) or sensitivity (S) ([6]; P. aeruginosa phenotype Wild): S

Molecule: CC1COc2c(N3CCN(C)CC3)c(F)cc3c(=O)c(C(=O)O)cn1c23 (centres unmarked) [OFX, ofloxacin]
- resistant (I/R) or sensitive (S) [2, 8]: R
- resistant (I/R) or sensitive (S) [2, 9]: R
- resistant (I/R) or sensitive (S) [2, 10]: S
- resistant (I/R) or sensitive (S) [3, 11]: R
- resistant (I/R) or sensitive (S) ([3]; K. pneumoniae phenotype Wild): S

Molecule: C[C@@H](O)[C@H]1C(=O)N2C(C(=O)O)=C(S[C@@H]3CN[C@H](C(=O)Nc4cccc(C(=O)O)c4)C3)[C@H](C)[C@H]12 [Ertapenem]
- Critical diameters (mm) R> [4]: 22 mm
- Critical diameters (mm) S≤ [4]: 25 mm
- Critical concentrations (mg/L) R> [4]: 1 mg/L
- Critical concentrations (mg/L) S≤ [4]: 0.5 mg/L

Molecule: C[C@@H]1O[C@@H]1P(=O)(O)O [FF, fosfomycin]
- resistant (I/R) or sensitive (S) [1, 7]: R
- resistant (I/R) or sensitive (S) ([1]; S. aureus phenotype Wild): S

Molecule: pristinamycin [PT]
- resistant (I/R) or sensitive (S) [1, 7]: R
- resistant (I/R) or sensitive (S) ([1]; S. aureus phenotype Wild): S

Molecule: CCC[C@@H]1C[C@@H](C(=O)N[C@@H]([C@H]2O[C@H](SC)[C@H](O)[C@@H](O)[C@H]2O)[C@@H](C)O)N(C)C1 [LIN, lincomycin]
- resistance (I, R) or sensitivity (S) ([5]; E. faecalis phenotype Atypical): S
- resistance (I, R) or sensitivity (S) ([5]; E. faecalis phenotype Wild): S

Molecule: NCC[C@H](O)C(=O)N[C@@H]1C[C@H](N)[C@@H](O[C@H]2O[C@H](CN)[C@@H](O)[C@H](O)[C@H]2O)[C@H](O)[C@H]1O[C@H]1O[C@H](CO)[C@@H](O)[C@H](N)[C@H]1O [AK, amikacin]
- resistant (I/R) or sensitive (S) [2, 8]: S
- resistant (I/R) or sensitive (S) [2, 9]: S
- resistant (I/R) or sensitive (S) [2, 10]: S
- resistant (I/R) or sensitive (S) [3, 11]: S
- resistant (I/R) or sensitive (S) ([3]; K. pneumoniae phenotype Wild): R

Molecule: CC(=O)NC[C@H]1CN(c2ccc(N3CCOCC3)c(F)c2)C(=O)O1 [LNZ, linezolid]
- resistant (I/R) or sensitive (S) [1, 7]: S
- resistant (I/R) or sensitive (S) ([1]; S. aureus phenotype Wild): S

Molecule: CC1(C)S[C@@H]2[C@H](NC(=O)[C@H](C(=O)O)c3ccsc3)C(=O)N2[C@H]1C(=O)O [TIC, ticarcillin]
- resistant (I/R) or sensitive (S) [2, 8]: R
- resistant (I/R) or sensitive (S) [2, 9]: R
- resistant (I/R) or sensitive (S) [2, 10]: S
- resistant (I/R) or sensitive (S) [3, 11]: R
- resistant (I/R) or sensitive (S) ([3]; K. pneumoniae phenotype Wild): R
- resistance (I, R) or sensitivity (S) [6, 12]: R
- resistance (I, R) or sensitivity (S) ([6]; P. aeruginosa phenotype BSBL): I/R
- resistance (I, R) or sensitivity (S) [6, 13]: R
- resistance (I, R) or sensitivity (S) [6, 14]: R
- resistance (I, R) or sensitivity (S) [6, 15]: S
- resistance (I, R) or sensitivity (S) ([6]; P. aeruginosa phenotype Wild): S
